Assay results taken from patent US11872228B2, “Pharmaceutical composition containing thiamine derivative for prevention or treatment of sepsis” (KYUNGPOOK NATIONAL UNIVERSITY INDUSTRY-ACADEMIC COOPERATION …, priority 2021, dated 2024).

How the values were obtained:
TNFα [1] = experiment: Inhibition of TNFα expression in vivo (allithiamine along with LPS); design: species or system mice
Protocol: The inhibition of TNFα expression in vivo was investigated by the administration of 5 mg/kg allithiamine along with 50 mg/kg LPS, and the results are shown in FIG. 7A and Table 7.

TNFα [2] = experiment: Inhibition of TNFα expression in LPS-activated dendritic cells (ELISA of supernatants); format: cell-based, C57BL/6J male mice; details: for TNFα expression level relative to LPS alone: LPS-activated dendritic cells; for TNFα (pg/mL): 100 ng/mL LPS 18 h
Protocol: (§1) The dendritic cells at 1×10^6 cells/mL were treated with benfotiamine and fursultiamine at different concentrations of 0, 1, 10, and 100 and allithiamine at different concentrations of 0, 1, and 10 μM.
Thereafter, the dendritic cells were activated with 100 ng/mL LPS for 18 hours.

[3] = test system: LPS-induced sepsis mouse model; experiment: Survival rate of murine sepsis model, allithiamine treatment; format: in vivo, C57BL/6J male mice
Protocol: The mice were intravenously (I.V.) administered 5 mg/kg allithiamine immediately before intraperitoneal injection of 50 mg/kg LPS, and then the survival rates were monitored (allithiamine 5 mg/kg co-treatment). In addition, the mice were intravenously administered 5 mg/kg allithiamine three hours after LPS injection, and then the survival rates were monitored (allithiamine 5 mg/kg 3 h-delayed co-treatment), and the results are shown in FIG. 3 and Table 2.

TNFα [4] = experiment: Inhibition of TNFα expression in LPS-activated dendritic cells (ELISA of supernatants); format: cell-based, C57BL/6J male mice; details: for TNFα: dendritic cells not stimulated by LPS
CD40 = CD40 expression in CD11c+ dendritic cells by flow cytometry; format: cell-based, C57BL/6J male mice
Protocol: as §1
(§2) The dendritic cells were measured for CD40 and CD86 in CD11c+ cells by flow cytometry, and the results are shown in FIGS. 6A and 6B and Tables 5 and 6.

CD86 [5] = experiment: CD86 expression in CD11c+ dendritic cells by flow cytometry; format: cell-based, C57BL/6J male mice
Protocol: as §1, §2

IL-1β = experiment: Inhibition of IL-1β expression in LPS-primed, ATP-treated dendritic cells; format: cell-based, C57BL/6J male mice; details: for IL-1β: LPS priming + 5 mM ATP
Protocol: Bone marrow was extracted from the legs of six- to eight-week old C57BL/6J male mice, and subjected to red blood cell (RBC) lysis, followed by differentiation into dendritic cells in RPMI 1640 medium (10% fetal bovine serum (FBS) and 1% penicillin-streptomycin) along with 20 ng/ml granulocyte-macrophage colony-stimulating factor (GM-CSF) for six days. The dendritic cells at 1×10^6 cells/mL were treated with benfotiamine and fursultiamine at different concentrations of 0, 1, 10, and 100 and allithiamine at different concentrations of 0, 1, and 10 μM.
The dendritic cells were subjected to pro-IL1b priming by the treatment with 500 ng/mL LPS for 3 hours, and then treated with benfotiamine at 0, 10, 50, or 100 and fursultiamine at 0, 10, 50, or 100 μM, for 15 minutes. Then, pro-IL1b was converted into IL-1β through pro-IL1b cleavage, followed by 5 mM ATP treatment for inducing inflammasome formation.

CD86 [6] = experiment: CD86 expression in CD11c+ dendritic cells by flow cytometry; format: cell-based, C57BL/6J male mice; details: 50 μM, 100 ng/mL LPS
[7] = allithiamine 5 mg/kg along with LPS 50 mg/kg
[8] = 1 μM, dendritic cells, 100 ng/mL LPS
[9] = 10 μM, dendritic cells not stimulated by LPS
[10] = 10 μM, dendritic cells, 100 ng/mL LPS
[11] = 100 μM, dendritic cells not stimulated by LPS
[12] = 100 μM, dendritic cells, 100 ng/mL LPS

SMILES: C=CCSS/C(CCO)=C(/C)N(C=O)Cc1cnc(C)nc1N [Allithiamine, allithiamine]
- Reduction of TNFα expression relative to LPS alone (TNFα [1]; [7]): about 46.494%
- TNFα (pg/mL) (TNFα [1]; [7]): 2,084.883 pg/mL
- TNFα (TNFα [1]; allithiamine 5 mg/kg, without LPS): 82.442 pg/mL
- TNFα expression level relative to LPS alone (TNFα [2]; 1 μM): about 88.68%
- TNFα (pg/mL) (TNFα [2]; 1 μM, dendritic cells): 4,654.84 pg/mL
- TNFα expression level relative to LPS alone (TNFα [2]; 10 μM): about 74.68%
- TNFα (pg/mL) (TNFα [2]; 10 μM, dendritic cells): 3,919.75 pg/mL
- Percent survival (%) ([3]; 5 mg/kg i.v. 3 h-delayed treatment (3 h after 50 mg/kg LPS i.p.), 0 h): 100%
- Percent survival (%) ([3]; 5 mg/kg i.v. 3 h-delayed treatment, 50 mg/kg LPS, 20 h): 100%
- Percent survival (%) ([3]; 5 mg/kg i.v. 3 h-delayed treatment, 50 mg/kg LPS, 24 h): 100%
- Percent survival (%) ([3]; 5 mg/kg i.v. 3 h-delayed treatment, 50 mg/kg LPS, 28 h): 83.3%
- Percent survival (%) ([3]; 5 mg/kg i.v. 3 h-delayed treatment, 50 mg/kg LPS, 32 h): 83.3%
- Percent survival (%) ([3]; 5 mg/kg i.v. 3 h-delayed treatment, 50 mg/kg LPS, 36 h): 83.3%
- Percent survival (%) ([3]; 5 mg/kg i.v. 3 h-delayed treatment, 50 mg/kg LPS, 40 h): 83.3%
- Percent survival (%) ([3]; 5 mg/kg i.v. 3 h-delayed treatment, 50 mg/kg LPS, 44 h): 66.7%
- Percent survival (%) ([3]; 5 mg/kg i.v. 3 h-delayed treatment, 50 mg/kg LPS, 48 h): 66.7%
- Percent survival (%) ([3]; 5 mg/kg i.v. 3 h-delayed treatment, 50 mg/kg LPS, 52 h): 66.7%
- Percent survival (%) ([3]; 5 mg/kg i.v. 3 h-delayed treatment, 50 mg/kg LPS, 56 h): 66.7%
- Percent survival (%) ([3]; 5 mg/kg i.v. 3 h-delayed treatment, 50 mg/kg LPS, 60 h): 66.7%
- Percent survival (%) ([3]; 5 mg/kg i.v. co-treatment (immediately before 50 mg/kg LPS i.p.), 0 h): 100%
- Percent survival (%) ([3]; 5 mg/kg i.v. co-treatment, 50 mg/kg LPS, 20 h): 100%
- Percent survival (%) ([3]; 5 mg/kg i.v. co-treatment, 50 mg/kg LPS, 24 h): 83.3%
- Percent survival (%) ([3]; 5 mg/kg i.v. co-treatment, 50 mg/kg LPS, 28 h): 83.3%
- Percent survival (%) ([3]; 5 mg/kg i.v. co-treatment, 50 mg/kg LPS, 32 h): 83.3%
- Percent survival (%) ([3]; 5 mg/kg i.v. co-treatment, 50 mg/kg LPS, 36 h): 66.7%
- Percent survival (%) ([3]; 5 mg/kg i.v. co-treatment, 50 mg/kg LPS, 40 h): 66.7%
- Percent survival (%) ([3]; 5 mg/kg i.v. co-treatment, 50 mg/kg LPS, 44 h): 66.7%
- Percent survival (%) ([3]; 5 mg/kg i.v. co-treatment, 50 mg/kg LPS, 48 h): 66.7%
- Percent survival (%) ([3]; 5 mg/kg i.v. co-treatment, 50 mg/kg LPS, 52 h): 66.7%
- Percent survival (%) ([3]; 5 mg/kg i.v. co-treatment, 50 mg/kg LPS, 56 h): 66.7%
- Percent survival (%) ([3]; 5 mg/kg i.v. co-treatment, 50 mg/kg LPS, 60 h): 66.7%
- TNFα (TNFα [4]; 10 μM): 78.51 pg/mL
- CD40 (Mean fluorescence intensity; MFI) (CD40; [8]): 1,998 MFI
- CD40 expression level relative to LPS alone (CD40; 10 μM, dendritic cells): about 49%
- CD40 (Mean fluorescence intensity; MFI) (CD40; [9]): 253 MFI
- CD40 (Mean fluorescence intensity; MFI) (CD40; [10]): 982 MFI
- CD86 (Mean fluorescence intensity; MFI) (CD86 [5]; [8]): 2,184 MFI
- CD86 expression level relative to LPS alone (CD86 [5]; 10 μM, dendritic cells): about 64%
- CD86 (Mean fluorescence intensity; MFI) (CD86 [5]; [9]): 304 MFI
- CD86 (Mean fluorescence intensity; MFI) (CD86 [5]; [10]): 1,704 MFI

SMILES: C/C(=C(\CCOP(=O)(O)O)SC(=O)c1ccccc1)N(C=O)Cc1cnc(C)nc1N [Benfotiamine, benfotiamine]
- TNFα (pg/mL) (TNFα [2]; 1 μM, dendritic cells): 4,909.05 pg/mL
- TNFα (pg/mL) (TNFα [2]; 10 μM, dendritic cells): 4,614.42 pg/mL
- TNFα (pg/mL) (TNFα [2]; 100 μM, dendritic cells): 4,696.43 pg/mL
- Inhibition of the TNFα expression increased by LPS (in words) (TNFα [2]; dendritic cells, up to 100 μM): could not inhibit
- IL-1β (IL-1β; 10 μM): 912.2951 pg/mL
- IL-1β (IL-1β; 50 μM): 914.9398 pg/mL
- IL-1β (IL-1β; 100 μM): 914.2512 pg/mL
- Inhibition of the IL-1β expression increased by LPS (in words) (IL-1β; up to 100 μM): could not inhibit
- TNFα (pg/mL) (TNFα [4]; 50 μM, dendritic cells, 100 ng/mL LPS 18 h): 4,806.97 pg/mL
- TNFα (TNFα [4]; 100 μM): 84.82 pg/mL
- CD40 (Mean fluorescence intensity; MFI) (CD40; [8]): 2,134 MFI
- CD40 (Mean fluorescence intensity; MFI) (CD40; [10]): 1,975 MFI
- CD40 (Mean fluorescence intensity; MFI) (CD40; [11]): 248 MFI
- CD40 (Mean fluorescence intensity; MFI) (CD40; [12]): 1,803 MFI
- Inhibition of the CD40 expression increased by LPS (in words) (CD40; dendritic cells, up to 100 μM): could not inhibit
- CD86 (Mean fluorescence intensity; MFI) (CD86 [6]): 2,448 MFI
- CD86 (Mean fluorescence intensity; MFI) (CD86 [5]; [8]): 2,734 MFI
- CD86 (Mean fluorescence intensity; MFI) (CD86 [5]; [10]): 2,198 MFI
- CD86 (Mean fluorescence intensity; MFI) (CD86 [5]; [11]): 382 MFI
- CD86 (Mean fluorescence intensity; MFI) (CD86 [5]; [12]): 430 MFI
- Inhibition of the CD86 expression increased by LPS (in words) (CD86 [5]; dendritic cells, up to 100 μM): could not inhibit
